In ChEMBL document CHEMBL5038616, “Synthesis and biological evaluation of N, N-dialkylcarboxy coumarin-NO donor conjugates as potential anticancer agents” (Bioorg Med Chem Lett, 2021) one finds IC50, Activity and viability data, which are given here for 6 molecules.

As a reminder, the IC50 is the point on the concentration scale where inhibition reaches its midpoint.

Series [1] in a line: Cytotoxicity against human MCF-10A cells assessed as inhibition of cell proliferation by MTT assay. The class given is toxicity, cell-based. Background: Tetrazolium dyes change colour on reduction, which living cells bring about.
Series [2] deals with MDA-MB-231. Put plainly: Antiproliferative activity against human MDA-MB-231 cells assessed as inhibition of cell proliferation by MTT assay. The class given is functional, cell-based.
Series [3] deals with 4T1. Put plainly: Antiproliferative activity against mouse 4T1 cells assessed as inhibition of cell proliferation by MTT assay. Format: functional, cell-based.
Series [4] deals with WiDr. Put plainly: Antiproliferative activity against human WiDr cells assessed as inhibition of cell proliferation by MTT assay. The class given is functional, cell-based.
The test system of series [5] is MDA-MB-231. As to the kind of experiment: Cell cycle arrest in human MDA-MB-231 cells assessed as accumulation of cells at G0/G1 phase at 20 nM by PI staining based flow cytometry method. Format: functional. For orientation: In flow cytometry, cells or beads pass a laser one at a time.
Series [6] relates to MDA-MB-231. Put plainly: Antitumor activity against human MDA-MB-231 cells xenografted in NOD-SCID mouse assessed as reduction in tumor volume at 20 mg/kg, ip measured for every 2 to 3 days. The class given is functional. To be noted: time 2-3 day. Details: scale not given: the % may be the effect or the level left. On the technique in general: In xenograft studies the graft and the host belong to different species.

Series [7] has as its system MDA-MB-231. Put plainly: Induction of apoptosis in human MDA-MB-231 cells assessed as early apoptotic cells at 10 nM by annexin V-FITC and PI staining based flow cytometry method (reference value: 1.92 %). Format: functional.
For series [8], the system named is MDA-MB-231. As to the kind of experiment: Induction of apoptosis in human MDA-MB-231 cells assessed as necrotic cells at 50 nM by annexin V-FITC and PI staining based flow cytometry analysis (reference value: 2.88 %). Format: functional.
In series [9] the test system is MDA-MB-231. Put plainly: Induction of NO production in human MDA-MB-231 cells assessed as nitrite level at 100 uM by Griess reagent based assay. The class given is functional, cell-based.
The test system of series [10] is MDA-MB-231. Put plainly: Induction of NO production in human MDA-MB-231 cells assessed as increase in NO fluorescence at 50 nM treated with DAF-DM diacetate for 30 mins and measured after 2 hrs incubation by confocal microscopic analysis. Format: functional, cell-based.
The subject of series [11] is MDA-MB-231. As to the kind of experiment: Induction of apoptosis in human MDA-MB-231 cells assessed as late apoptotic cells at 10 nM by annexin V-FITC and PI staining based flow cytometry method (reference value: 2.02 %). The class given is functional.
Series [12] has as its system MDA-MB-231. Put plainly: Induction of apoptosis in human MDA-MB-231 cells assessed as viable cells at 25 nM by annexin V-FITC and PI staining based flow cytometry method (reference value: 93.2 %). Format: functional. The settings on record: read-out: Activity.
Series [13] concerns MDA-MB-231. Put plainly: Induction of apoptosis in human MDA-MB-231 cells assessed as necrotic cells at 25 nM by annexin V-FITC and PI staining based flow cytometry method (reference value: 2.88 %). The class given is functional.
Series [14] deals with MDA-MB-231. Put plainly: Induction of apoptosis in human MDA-MB-231 cells assessed as necrotic cells at 10 nM by annexin V-FITC and PI staining based flow cytometry method(reference value: 2.88 %). The class given is functional.
Series [15] relates to MDA-MB-231. As to the kind of experiment: Inhibition of colony formation in human MDA-MB-231 cells assessed as reduction in colony formation at 1 to 3 nM relative to control. The class given is functional, cell-based. The settings on record: dose 1-3 nM.
A short description of series [16]: Cytotoxicity against human HDFa cells assessed as inhibition of cell proliferation by MTT assay. The class given is toxicity, cell-based.
For series [17], the system named is MDA-MB-231. As to the kind of experiment: Induction of apoptosis in human MDA-MB-231 cells assessed as viable cells at 50 nM by annexin V-FITC and PI staining based flow cytometry method (reference value: 93.2 %). Format: functional. To be noted: read-out: Activity.
In series [18] the test system is MDA-MB-231. As to the kind of experiment: Induction of apoptosis in human MDA-MB-231 cells assessed as late apoptotic cells at 25 nM by annexin V-FITC and PI staining based flow cytometry method (reference value: 2.02 %). Format: functional.
The subject of series [19] is MDA-MB-231. As to the kind of experiment: Induction of apoptosis in human MDA-MB-231 cells assessed as early apoptotic cells at 50 nM by annexin V-FITC and PI staining based flow cytometry method (reference value: 1.92 %). Format: functional.
The subject of series [20] is MDA-MB-231. Put plainly: Induction of apoptosis in human MDA-MB-231 cells assessed as early apoptotic cells at 25 nM by annexin V-FITC and PI staining based flow cytometry method (reference value: 1.92 %). Format: functional.
The test system of series [21] is MDA-MB-231. Put plainly: Induction of apoptosis in human MDA-MB-231 cells assessed as late apoptotic cells at 50 nM by annexin V-FITC and PI staining based flow cytometry method (reference value: 2.02 %). The class given is functional.
The subject of series [22] is MDA-MB-231. As to the kind of experiment: Induction of apoptosis in human MDA-MB-231 cells assessed as viable cells at 10 nM by annexin V-FITC and PI staining based flow cytometry method (reference value: 93.2 %). The settings on record: read-out: Activity. The class given is functional.
Series [23] deals with MDA-MB-231. Put plainly: Antitumor activity against human MDA-MB-231 cells xenografted in NOD-SCID mouse assessed as reduction in tumor mass at 20 mg/kg, ip measured for every 2 to 3 days. The class given is functional. Details: scale not given: the % may be the effect or the level left. The settings on record: time 2-3 day.
A short description of series [24]: Toxicity in […] mouse xenografted with human MDA-MB-231 cells assessed as body weight loss at 20 mg/kg, ip dosed once daily for 14 days relative to control. To be noted: in vivo, 336 h, time 14 day. Format: organism-based.

Activity calls are given as the source filed them. No cut-off for these calls is given here. A value given as a limit tells only on which side of the number the result lay.

`O=C(O)c1cc2ccc(N(Cc3ccccc3)Cc3ccccc3)cc2oc1=O`: the IC50 in [1], in [2], in series [3] and in [4] was above 100 µM each time.

Take `O=C(OCCOc1no[n+]([O-])c1S(=O)(=O)c1ccccc1)c1cc2ccc(N(Cc3ccccc3)Cc3ccccc3)cc2oc1=O`: the IC50 in series [1] was 34 µM; in series [9], “Active”; in series [2], 0.02 µM; in [16], 1.48 µM; in series [3], 0.13 µM; in [4], 0.03 µM. Also, the outcome in series [5] and in series [10] was Active. In addition, the Activity in series [6] was 48%; in [7] it was 2.04%; in [8], 1.47%; in series [11], 5.7%; in series [13], 1.65%; in [14] it was 1.36%. Also, the Activity entry is “Dose-Dependent Effect” in series [15]; 19.4% in series [18]; 4.8% in [19]; 3.04% in series [20]; 32.9% in series [21]; 35% in series [23]. Further, in [24], the Activity entry is recorded as “Non-Toxic”. Further, the viability at 0.025 µM in [12] turned out to be 75.9%. Also, the viability at 0.05 µM in [17] stood at 60.8%. Further, in [22], the viability at 0.01 µM amounted to 90.9%.

As to `O=C(c1cc2ccc(N(Cc3ccccc3)Cc3ccccc3)cc2oc1=O)N1CCN(CCOc2no[n+]([O-])c2S(=O)(=O)c2ccccc2)CC1`, the concentration for half-maximal inhibition (IC50) in [1] was found to be 8.6 µM; in series [2], 0.46 µM; in [16], 5.31 µM; in series [3] it was 0.96 µM; in [4], 10 µM. In series [9], the result was inactive. Moreover, the outcome in [10] was Active.

Consider `CCN(CC)c1ccc2cc(C(=O)OCCOc3no[n+]([O-])c3S(=O)(=O)c3ccccc3)c(=O)oc2c1`, for which the result in series [9] and in series [10] was Active. In addition, the concentration for half-maximal inhibition (IC50) in series [2] amounted to 3.6 µM; in [16], 1.48 µM; in series [3] it was 1.3 µM; in [4] it was 2.2 µM.

As for `O=C(OCCO)c1cc2ccc(N(Cc3ccccc3)Cc3ccccc3)cc2oc1=O`, the IC50 in series [1], in series [2], in [3] and in [4] was above 100 µM throughout.

Consider `CCN(CC)c1ccc2cc(C(=O)OCCO)c(=O)oc2c1`, for which the IC50 in series [1], in series [2], in [3] and in [4] was above 100 µM in each case.
